Here are results for 43 compounds from patent US20070167466A1, “"Pyrazolo [4,3-d]pyrimidines, processes for their preparation and methods of use"” (priority 2003, published 2007).

Assay [1] deals with MCF7 (human breast adenocarcinoma). The assay can be described thus: In vitro cytotoxic activity, Calcein AM, three days. The class given is cell-based. The protocol:
(§1) We have been using the following cell lines: HELA (human cervical carcinoma), MCF7 (human breast adenocarcinoma), NIH 3T3 (mouse fibroblasts), HOS (human osteogenic sarcoma), HL 60 (human promyelocytic leukemia), G 361 (human malignant melanoma), K562 (human chronic myeloblastic leukemia), CEM (human lymphoblastoid leukaemia). Tested drugs were added to the cell cultures in six different concentration and kept at 37° C. and 5% CO2 for three days. All cell lines were grown in DMBM medium (Gibco BRL) supplemented with 10% (v/v) fetal bovine serum and L-glutamine and maintained at 37° C. in a humidified atmosphere with 5% CO2. 10^4 cells were seeded into each well of 96 well plate, allowed to stabilize for at least 2 h and then tested compounds were added at various concentrations ranging from 200 to 0.2 μM in triplicates. Three days after drug addition Calcein AM solution (Molecular Probes) was added and let to enter the cells for 1 hour. Fluorescence of viable cells was quantified employing Fluoroskan Ascent (Microsystems).

Assay [2] has as its system K562 (human chronic myeloblastic leukemia). The description is as above. The format is cell-based. The following applies: read-out: K-562 IC50. The protocol: as §1
Assay [3] deals with T1, CDK1 (p34^cdc2, cyclin B) (Homo sapiens, UniProt P06493).
T1 construct: made in house; host or cells: Sf9 insect cells (baculovirus co-infection)
T1 sequence (P06493 whole entry, species assumed): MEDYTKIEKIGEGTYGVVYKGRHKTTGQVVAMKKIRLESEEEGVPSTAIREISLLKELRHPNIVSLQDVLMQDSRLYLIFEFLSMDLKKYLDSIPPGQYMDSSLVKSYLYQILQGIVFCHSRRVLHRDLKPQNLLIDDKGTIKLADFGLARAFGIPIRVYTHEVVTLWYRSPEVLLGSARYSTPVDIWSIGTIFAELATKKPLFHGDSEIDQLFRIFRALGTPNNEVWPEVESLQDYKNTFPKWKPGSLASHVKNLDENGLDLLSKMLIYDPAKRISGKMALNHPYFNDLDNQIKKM
T1 sequence (P14635 whole entry partner, species assumed): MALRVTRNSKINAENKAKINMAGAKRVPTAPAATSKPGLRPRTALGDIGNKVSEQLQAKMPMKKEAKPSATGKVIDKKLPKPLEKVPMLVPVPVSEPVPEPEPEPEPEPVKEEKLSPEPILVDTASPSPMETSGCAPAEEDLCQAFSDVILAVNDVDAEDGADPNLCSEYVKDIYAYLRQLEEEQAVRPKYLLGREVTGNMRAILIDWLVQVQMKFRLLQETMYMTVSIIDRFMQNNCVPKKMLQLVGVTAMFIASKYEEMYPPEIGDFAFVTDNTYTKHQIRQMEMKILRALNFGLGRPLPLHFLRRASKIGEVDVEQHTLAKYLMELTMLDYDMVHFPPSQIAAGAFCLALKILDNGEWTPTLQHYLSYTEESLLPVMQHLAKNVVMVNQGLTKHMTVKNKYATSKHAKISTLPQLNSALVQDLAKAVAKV
The assay can be described thus: CDK inhibition assay, p34^cdc2 kinase, histone H1 phosphorylation. The format is biochemical. The following applies: 15 μM ATP, histone H1, 30° C. The protocol:
The controls contain suitable dilutions of DMSO.
2-glycerolphosphate, 1 mM NaF, 1 mM DTT

The target in assay [4] is CDK2 (p33^cdk2, cyclin E) (Homo sapiens, UniProt P24941). The assay can be described thus: CDK inhibition assay, p33^cdk2 kinase, histone H1 phosphorylation.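 Note: Baculovirus-expressed kinase/cyclin complex from Sf9 cell extract, 10 min at 30 °C, phosphoproteins separated by SDS gel and quantified by image analysis, activity relative to DMSO control.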
Where [5] appears, read: read-out: CDK2 IC50, 15 μM ATP, histone H1, 30° C.

SMILES strings stand for the structures. Like-named read-outs stand apart in the source and are kept apart here.

What is called IC50 is the concentration needed to halve the response being measured.

In the case of `CC(C)c1n[nH]c2c(Nc3ccc(N)c(Cl)c3)ncnc12` [3-chloro-4-aminoanilino / isopropyl], the concentration for half-maximal inhibition (IC50) was 12 µM in assay [1] (Homo sapiens, MCF7, 72 h); 13 µM in assay [2] (Homo sapiens, K562, 72 h); 2.9 µM in assay [3]; 3 µM in assay [4].

As for `CCc1n[nH]c2c(NCc3ccccc3O)ncnc12` [2-hydroxybenzylamino / ethyl], the IC50 was 63 µM in assay [1] (Homo sapiens, MCF7, 72 h); 51 µM in assay [2] (Homo sapiens, K562, 72 h); 6.2 µM in assay [3]; 7 µM in assay [4].

With `COc1ccc(CNc2ncnc3c(C)n[nH]c23)cc1` [4-methoxybenzylamino / methyl], the IC50 in assay [1] was 35 µM; in assay [2], 53 µM.

On to `Cc1n[nH]c2c(NCc3ccccc3O)ncnc12` [2-hydroxybenzylamino / methyl], for which the IC50 is 67 µM in assay [1] (Homo sapiens, MCF7, 72 h); 55 µM in assay [2] (Homo sapiens, K562, 72 h); 4 µM in assay [3]; 5.2 µM in assay [4].

In the case of `CC(C)c1n[nH]c2c(Nc3ccc(Cl)c(N)c3)ncnc12` [3-amino-4-chloroanilino / isopropyl], the IC50 in assay [1] (Homo sapiens, MCF7, 72 h) was 0.2 µM; in assay [2] (Homo sapiens, K562, 72 h) it was 0.3 µM; in assay [3], 2.9 µM; in assay [4], 3 µM.

Consider `CC(C)c1n[nH]c2c(Nc3ccc(C(=O)O)c(Cl)c3)ncnc12` [3-chloro-4-carboxyanilino / isopropyl], for which the IC50 is 46 µM in assay [1] (Homo sapiens, MCF7, 72 h); 69 µM in assay [2] (Homo sapiens, K562, 72 h); 2.5 µM in assay [3]; 2.8 µM in assay [4].

On to `CCc1n[nH]c2c(NC3CCC(N)CC3)ncnc12` (stereo not drawn) [4-aminocyclohexylamino / ethyl], for which the IC50 in assay [1] was 71 µM; in assay [2] it was 110 µM.

For the compound `Cc1n[nH]c2c(NCc3cccc(O)c3)ncnc12` [3-hydroxybenzylamino / methyl], the IC50 in assay [1] (Homo sapiens, MCF7, 72 h) was 119 µM; in assay [2] (Homo sapiens, K562, 72 h) it was 143 µM; in assay [3] it was 5.5 µM; in assay [4], 7.2 µM.

In the case of `CCCCCNc1ncnc2c(C)n[nH]c12` [pentylamino / methyl], the values for the half-maximal inhibitory concentration (IC50) in assay [1] and in assay [2] were 45 µM and 67 µM, respectively.

Regarding `CCc1n[nH]c2c(NCc3cccc(O)c3)ncnc12` [3-hydroxybenzylamino / ethyl], the IC50 in assay [1] (Homo sapiens, MCF7, 72 h) was 111 µM; in assay [2] (Homo sapiens, K562, 72 h), 132 µM; in assay [3] it was 6 µM; in assay [4] it was 3.2 µM.

Regarding `CCCCCNc1ncnc2c(CC)n[nH]c12` [pentylamino / ethyl], the IC50 in assay [1] is 41 µM; in assay [2] it was 62 µM.

Regarding `CCc1n[nH]c2c(NCc3ccccc3Br)ncnc12` [2-bromobenzylamino / ethyl], the IC50 in assay [1] was 54 µM; in assay [2] it was 60 µM.

`CCc1n[nH]c2c(NCc3ccc(OC)c(O)c3)ncnc12` [3-hydroxy-4-methoxybenzylamino / ethyl]: the 50% inhibitory concentration (IC50) in assay [1] was 52 µM; in assay [2], 72 µM.

Consider `Cc1n[nH]c2c(NCc3ccc(O)cc3)ncnc12` [4-hydroxybenzylamino / methyl], for which the IC50 in assay [1] and in assay [2] was more than 167 µM each time.

As for `Cc1n[nH]c2c(NCc3ccccc3)ncnc12` [benzylamino / methyl], the IC50 is 67 µM in assay [1] and 29 µM in assay [2].

`CC(C)c1n[nH]c2c(NCc3ccccc3Br)ncnc12` [2-bromobenzylamino / isopropyl, 7-(2-bromobenzyl)amino-3-isopropylpyrazolo[4,3-d]pyrimidine]: the IC50 was 42 µM in assay [1] (Homo sapiens, MCF7, 72 h); 57 µM in assay [2] (Homo sapiens, K562, 72 h); 7 µM in assay [3]; 9 µM in assay [4].

`CCc1n[nH]c2c(NC3CCC3)ncnc12` [cyclobutylamino / ethyl]: the IC50 in assay [1] (Homo sapiens, MCF7, 72 h) is 82 µM; in assay [2] (Homo sapiens, K562, 72 h), 94 µM; in assay [3], 27 µM; in assay [4], 25 µM.

For the compound `CCc1n[nH]c2c(NCc3ccc(OC)cc3)ncnc12` [4-methoxybenzylamino / ethyl], the IC50 in assay [1] is 31 µM; in assay [2], 48 µM.

As for `COc1ccc(CNc2ncnc3c(C(C)C)n[nH]c23)c(O)c1`, the figures for the IC50 in assay [1] and in assay [2] were 0.2 µM and 0.5 µM, respectively.

Regarding `CC(C)c1n[nH]c2c(NCc3ccccc3N)ncnc12` [2-aminobenzylamino / isopropyl], the IC50 in assay [1] is 0.8 µM; in assay [2], 2.1 µM.

As to `Cc1n[nH]c2c(NC3CCC(N)CC3)ncnc12` (stereo not drawn) [4-aminocyclohexylamino / methyl], the half-maximal inhibitory concentration (IC50) was 75 µM in assay [1] and 115 µM in assay [2].

As for `CC(C)c1n[nH]c2c(NCc3ccccc3O)ncnc12` [2-hydroxybenzylamino / isopropyl, 7-(2-hydroxybenzyl)amino-3-isopropylpyrazolo[4,3-d]pyrimidine], the IC50 in assay [1] (Homo sapiens, MCF7, 72 h) is 63 µM; in assay [2] (Homo sapiens, K562, 72 h), 50 µM; in assay [3], 0.4 µM; in assay [4] it was 0.27 µM.

For the compound `CCc1n[nH]c2c(NCc3ccco3)ncnc12` [furfurylamino / ethyl], the IC50 in assay [1] (Homo sapiens, MCF7, 72 h) is 135 µM; in assay [2] (Homo sapiens, K562, 72 h), more than 167 µM; in assay [3], 8.2 µM; in assay [4], 5.3 µM.

For the compound `CCc1n[nH]c2c(Nc3ccc(Cl)cc3)ncnc12` [4-chloroanilino / ethyl], the results for the IC50 in assay [3] and in assay [4] were 14 µM and 16 µM, respectively.

In the case of `CCc1n[nH]c2c(NCc3ccccc3)ncnc12` [benzylamino / ethyl], the IC50 is 62 µM in assay [1] (Homo sapiens, MCF7, 72 h); 81 µM in assay [2] (Homo sapiens, K562, 72 h); 12 µM in assay [3]; 11 µM in assay [4].

With `CC(C)c1n[nH]c2c(Nc3ccc(Cl)cc3)ncnc12` [4-chloroanilino / isopropyl], the IC50 in assay [1] (Homo sapiens, MCF7, 72 h) was 3 µM; in assay [2] (Homo sapiens, K562, 72 h), 4 µM; in assay [3], 2.1 µM; in assay [4] it was 3.1 µM.

With `COc1ccc(CNc2ncnc3c(C)n[nH]c23)cc1O` [3-hydroxy-4-methoxybenzylamino / methyl], the IC50 in assay [1] was 58 µM; in assay [2] it was 79 µM.

With `CCc1n[nH]c2c(NCc3cccc(C)c3)ncnc12` [3-methylbenzylamino / ethyl], the results for the concentration for half-maximal inhibition (IC50) in assay [3] and in assay [4] were 18 µM and 17 µM, respectively.

In the case of `CCc1n[nH]c2c(NCc3ccccc3Cl)ncnc12` [2-chlorobenzylamino / ethyl], the IC50 in assay [3] and in assay [4] was 12 µM in each case.

As for `COc1ccc(CNc2ncnc3c(C(C)C)n[nH]c23)cc1O` [7-(3-hydroxy-4-methoxybenzyl)amino-3-isopropylpyrazolo[4,3d]pyrimidine], the IC50 in assay [1] was 45 µM; in assay [2] it was 68 µM; in assay [3], 0.9 µM; in assay [4] (setting [5]), 0.2 µM.

With `CC(C)c1n[nH]c2c(NC3CCC(N)CC3)ncnc12` (stereo not drawn) [(4-aminocyclohexyl)amino / isopropyl], the IC50 in assay [1] is 68 µM; in assay [2], 107 µM; in assay [3], 80 µM; in assay [4] (setting [5]), 70 µM.

Regarding `CCc1n[nH]c2c(NCc3ccc(Cl)cc3)ncnc12` [4-chlorobenzylamino / ethyl], the half-inhibitory concentration (IC50) in assay [3] was 26 µM; in assay [4], 19 µM.

As to `CCc1n[nH]c2c(Nc3cccc(Cl)c3)ncnc12` [3-chloroanilino / ethyl], the IC50 in assay [1] (Homo sapiens, MCF7, 72 h) was 19 µM; in assay [2] (Homo sapiens, K562, 72 h), 28 µM; in assay [3], 24 µM; in assay [4] it was 18 µM.

For `Cc1n[nH]c2c(NCc3ccc(Cl)cc3)ncnc12` [4-chlorobenzylamino / methyl], the results for the IC50 in assay [3] and in assay [4] were 20 µM and 18 µM, respectively.

Take `CC(C)c1n[nH]c2c(NCc3ccc(O)cc3)ncnc12` [4-hydroxybenzylamino / isopropyl, 7-(4-hydroxybenzyl)amino-3-isopropylpyrazolo[4,3-d]pyrimidine]: the IC50 in assay [1] (Homo sapiens, MCF7, 72 h) is 152 µM; in assay [2] (Homo sapiens, K562, 72 h), more than 167 µM; in assay [3] it was 1.8 µM; in assay [4] it was 0.2 µM.

For `CC(C)=CCNc1ncnc2c(C)n[nH]c12` [isopentenylamino / methyl], the IC50 in assay [3] amounted to 45 µM; in assay [4], 44 µM.

In the case of `CCc1n[nH]c2c(NCc3cccc(Cl)c3)ncnc12` [3-chlorobenzylamino / ethyl], the IC50 in assay [3] is 9.7 µM; in assay [4], 10.2 µM.

With `Cc1n[nH]c2c(NCc3ccccc3Br)ncnc12` [2-bromobenzylamino / methyl], the IC50 in assay [1] was 56 µM; in assay [2], 68 µM.

Regarding `CCc1n[nH]c2c(Nc3ccccc3)ncnc12` [anilino / ethyl], the half-inhibitory concentration (IC50) in assay [3] is 14 µM; in assay [4], 20 µM.

Consider `Cc1n[nH]c2c(Nc3ccc(Cl)c(N)c3)ncnc12` [3-amino-4-chloroanilino / methyl], for which the IC50 in assay [3] came out at 27 µM; in assay [4] it was 28 µM.

As for `Cc1n[nH]c2c(Nc3cc(N)cc(Cl)c3)ncnc12` [3-chloro-5-aminoanilino / methyl], the figures for the IC50 in assay [3] and in assay [4] were 19 µM and 24 µM, respectively.

Consider `COc1ccc(O)c(CNc2ncnc3c(C(C)C)n[nH]c23)c1`, for which the results for the IC50 in assay [1] and in assay [2] were 0.9 µM and 1.2 µM, respectively.

Consider `COc1cccc(CNc2ncnc3c(C(C)C)n[nH]c23)c1O`, for which the IC50 in assay [1] is 0.6 µM; in assay [2], 0.8 µM.
